Source: patent US8742112B2, “Heterocyclic compound and its use for control of an arthropod pest” (Sumitomo Chemical Company, Limited, priority 2009, dated 2014)

Columns and labels:
Bemisia tabaci = experiment: Test Example 4: spray on tomato seedling carrying Bemisia tabaci eggs/larvae; assay type: in vivo; conditions: 200 ppm, 10 ml/cup sprayed on tomato seedling, larvae checked after 7 days at 25° C., Formulation Example 5
Procedure: The present compounds (1), (4) to (7), (9) to (12) and (14) to (19) were formulated by the method in Formulation Example 5. This formulation was diluted with water so that the active ingredient concentration was 200 ppm, to prepare a diluted solution for test. On a tomato seedling planted in a plastic cup, Bemisia tabaci adult insects were released and allowed to lay eggs for about 24 hours. The tomato seedling was left in a greenhouse for 8 days. Thereafter, the diluted solution for test was sprayed in a proportion of 10 ml/cup. Further, this tomato seedling was placed in a greenhouse at 25° C. for 7 days. Thereafter, the number of larvae living on the tomato leaves was checked, and the control value was calculated according to the following formula. Control value (%)={1−(Cb×Tai)/(Cai×Tb)}×100 Letters in the formula represent the following meanings. Cb: insect number before treatment on non-treated area Cai: insect number in observation on non-treated area Tb: insect number before treatment on treated area Tai: insect number in observation on treated area

Aphis gossypii = experiment: Test Example 3: treatment of the foot of a cucumber seedling, then inoculation with Aphis gossypii; assay type: in vivo; conditions: 200 ppm, 5 ml at foot of cucumber seedling, inoculated after 7 days at 25° C., checked after 6 days, Formulation Example 5
Procedure: The present compound (7) was formulated by the method in Formulation Example 5. This formulation was diluted with water so that the active ingredient concentration was 200 ppm, to prepare a diluted solution for test. The diluted solution for test (5 ml) was used to treat a foot of a cucumber seedling (first true leaf spreading stage) planted in a plastic cup. This cucumber was left in a greenhouse at 25° C. for 7 days. Then; the cucumber leaf surface was inoculated with 30 Aphis gossypii (whole stage). This cucumber was further left in the greenhouse for 6 days, then, the insect number of living Aphis gossypii parasitic on the leaves of this cucumber was checked, and the control value was calculated according to the following formula. Control value (%)={1−(Cb×Tai)/(Cai×Tb)}×100 Letters in the formula represent the following meanings. Cb: insect number before treatment on non-treated area Cai: insect number in observation on non-treated area Tb: insect number before treatment on treated area Tai: insect number in observation on treated area

Structure (SMILES)	Control value (Bemisia tabaci)	Control value (Aphis gossypii)
Fc1cnccc1-c1nc2cc(C(F)(F)F)ccc2s1 [compound 1]	≥ 90%	
CCS(=O)(=O)c1cnccc1-c1nc2cc(C(F)(F)F)ccc2s1 [compound 7]		≥ 90%
